Measurements taken from patent US20210302459A1, “Biosensor Storage Methods” (Queen's University at Kingston, priority 2020, published 2021).

Legend:
Format in all cases: binding
[1] = target: T1, TLR2/6 biosensor (TLR2 and TLR6 proteins immobilized on gold electrode) (Mus musculus, UniProt Q9EPW9+Q9QUN7); assay: Response of TLR2/6 biosensors to Pam2CSK4 after 2 weeks storage under different conditions; details: for detection response / activity in comparison to control: 50 μM Pam2CSK4; for activity in comparison to control: −33° C.
T1 construct: Fc (fusion partner, Fc chimera); purchased R&D Systems Inc. 1530-TR-050 (TLR2); 1533-TR-050 (TLR6)
Procedure: Referring to FIGS. 2A-C, plots are shown that provide detection responses obtained from TLR2/6 biosensors in the presence of Pam2CSK4 with no storage, and with storage under different conditions for 2 weeks (see Example 5 for details). Columns labelled ‘A’ in FIGS. 2A-C correspond to detection responses of fresh (i.e., not stored) TLR2/6 biosensors to different concentrations of Pam2CSK4. Responses of TLR2/TLR6 biosensors stored in PBS buffer at −80° C. (see columns labelled ‘E’ in FIGS. 2A-2C) for two weeks to Pam2CSK4 were equivalent to the responses from freshly prepared biosensors. That is, there was no significant loss of performance under storage condition E (see Table 1).
Biosensors as described herein (e.g., TLR2/6 proteins immobilized onto conductive surfaces) were stored under varying conditions (see Table 1) for two weeks and then challenged by the PAMP (Pam2CSK4). As shown in FIGS. 2A-2C, a comparison was done of the responses from freshly prepared and stored biosensors were compared. Calibration curves including more concentration points are shown in FIGS. 6A-6D, where ΔRCT(%) is a normalized detection signal. ΔRCT(%)=[RCT (after exp.)−RCT (before exp.)]/RCT (before exp.), where “before exp.” refers to before exposure to analyte, and “after exp.” refers to after exposure to the analyte.
Three storage temperatures were selected, 4° C., −33° C., and −80° C. Ionic salt solutions are commonly used to maintain protein folding and stability, thus, to preserve the biosensor during storage, varying buffer solutions were used.
Batch B biosensors were stored in PBS buffer of pH˜7.4 at 4° C.
The storage conditions for Batch C was −33° C. in 50% v/v PBS buffer at pH ˜7.4 and glycerol. The storage conditions for Batch D was −33° C. in 50% v/v Tris buffer pH ˜7.7 and glycerol. […] However, the activity was reduced down to 30% in comparison to control.
The storage conditions for Batch E was −80° C. in PBS buffer at pH ˜7.4.
Batch F biosensors were stored at −80° C. in the absence of any buffer solution.
Batch G biosensors were disposed in a buffer solution that included amino acids. Specifically, Batch G buffer solution included 50 mM L-Arg, 50 mM L-Glu, 1 M NaCl and 200 mM imidazole in 50 mM Tris-HCl (pH˜8.0). The solution surrounded each biosensor in Batch G and they were kept at 4° C.
Different concentrations of Pam2CSK4 were used to trigger the responses. These concentrations were 0.1 μM for FIG. 2A; 1.0 μM for FIG. 2B; and 50 μM for FIG. 2C.

[2] = target: T1, TLR2/6 biosensor (TLR2 and TLR6 proteins immobilized on gold electrode); assay: Cyclic voltammetry peak current of TLR2/6 biosensors after exposure to analyte; details: concentration increased 0.1 to 50.0 μM; reduced from 147 μA
Procedure: As shown in FIGS. 1A-B, a TLR2/6 biosensor was prepared following the steps as shown. Specifically, TLR biosensors were prepared using DropSens gold screen printed electrode (SPE). 1-lipoic acid n-hydroxysuccinimide ester (LPA, a linker molecule) was synthesized following a published protocol (see Howarth, M., et al., Nat. Methods, 2008, 5, 397-399). LPA solution at a concentration of 2 mM was prepared using ethanol/MQ water (volume ratio of 1:1). A clean plastic petri dish was lined with a filter paper which was dampened with a 1:1 solution of ethanol and MQ. The DropSens SPE was placed on the filter paper and 50 μL of the 2 mM LPA solution was dropped onto the working electrode. The petri dish was sealed with parafilm and placed in a fridge at 277 K for 24 hours. An additional 50 μL of the 2 mM LPA solution was cast onto a working electrode and returned to the fridge for another 24 hours. […]
(§1) All electrochemical measurements were preformed in faraday cages using DRP-CAC adapters for SPEs being measured. […] The experimental EIS curves were evaluated to determine the film resistance using ZSimpWin 2.0 software (available from AMETEK® Scientific Instruments of Berwyn, Pa., USA). […]
(§2) Sensor responses to different concentrations of Pam2CSK4, a gram-positive PAMP, were evaluated. […] Reduction in measured current correlated to the binding of Pam2CSK4 onto the TLR2/6 biosensor. […]

[3] = target: T1, TLR2/6 biosensor (TLR2 and TLR6 proteins immobilized on gold electrode); assay: Electrochemical impedance response (ΔRct %) of freshly prepared TLR2/6 biosensors to isolated PAMPs
Procedure: As shown in FIGS. 1A-B, a TLR2/6 biosensor was prepared following the steps as shown. Specifically, TLR biosensors were prepared using DropSens gold screen printed electrode (SPE). 1-lipoic acid n-hydroxysuccinimide ester (LPA, a linker molecule) was synthesized following a published protocol (see Howarth, M., et al., Nat. Methods, 2008, 5, 397-399). LPA solution at a concentration of 2 mM was prepared using ethanol/MQ water (volume ratio of 1:1). A clean plastic petri dish was lined with a filter paper which was dampened with a 1:1 solution of ethanol and MQ. The DropSens SPE was placed on the filter paper and 50 μL of the 2 mM LPA solution was dropped onto the working electrode. The petri dish was sealed with parafilm and placed in a fridge at 277 K for 24 hours. An additional 50 μL of the 2 mM LPA solution was cast onto a working electrode and returned to the fridge for another 24 hours. After a total of 48 hours the SPE was rinsed thoroughly with ethanol and MQ water before blown dry with nitrogen. TLR2 and TLR6 proteins were individually reconstituted into solutions at a concentration of 200 μg/mL using PBS buffer (pH ˜7.4). The TLR2/6 protein mixture was prepared by mixing 100 μL of TLR2 and 100 μL of TLR6 and mixing on a vortex machine for 30 seconds in a 1.5 mL microcentrifuge tube. The SPEs were placed in petri dishes with filter papers dampened with PBS buffer (pH ˜7.4). A small drop of TLR 2/6 mixture (5 μL) was dispensed onto each working electrode and then the petri dishes were sealed with PARAFILM™ and left in the fridge at 277 K for 72 hours. The electrodes were rinsed with MQ water after the immersion and blown dry with nitrogen. An ethanolamine-tris buffer solution was prepared by dissolving 1.2 g of ethanolamine, 0.121 g tris base in 20 mL of MQ water. The pH of the solution was adjusted to 8.4 using concentrated hydrochloric acid. After the step of immobilizing TLR2/6 proteins, electrode surfaces were immersed in ethanolamine solutions for 1 hour to deactivate unreacted ester groups on the LPA monolayer.
as §1, with “measured. Cyclic voltammetry (CV), square wave voltammetry (SWV), and electrochemical impedance spectroscopy (EIS) measurements were completed using CHI6055E potentiostats (CH Instruments of Austin, Tex., USA).” for “measured.”
as §2

T1 sequence (Q9QUN7 with tags, fused parts or gaps limits assumed): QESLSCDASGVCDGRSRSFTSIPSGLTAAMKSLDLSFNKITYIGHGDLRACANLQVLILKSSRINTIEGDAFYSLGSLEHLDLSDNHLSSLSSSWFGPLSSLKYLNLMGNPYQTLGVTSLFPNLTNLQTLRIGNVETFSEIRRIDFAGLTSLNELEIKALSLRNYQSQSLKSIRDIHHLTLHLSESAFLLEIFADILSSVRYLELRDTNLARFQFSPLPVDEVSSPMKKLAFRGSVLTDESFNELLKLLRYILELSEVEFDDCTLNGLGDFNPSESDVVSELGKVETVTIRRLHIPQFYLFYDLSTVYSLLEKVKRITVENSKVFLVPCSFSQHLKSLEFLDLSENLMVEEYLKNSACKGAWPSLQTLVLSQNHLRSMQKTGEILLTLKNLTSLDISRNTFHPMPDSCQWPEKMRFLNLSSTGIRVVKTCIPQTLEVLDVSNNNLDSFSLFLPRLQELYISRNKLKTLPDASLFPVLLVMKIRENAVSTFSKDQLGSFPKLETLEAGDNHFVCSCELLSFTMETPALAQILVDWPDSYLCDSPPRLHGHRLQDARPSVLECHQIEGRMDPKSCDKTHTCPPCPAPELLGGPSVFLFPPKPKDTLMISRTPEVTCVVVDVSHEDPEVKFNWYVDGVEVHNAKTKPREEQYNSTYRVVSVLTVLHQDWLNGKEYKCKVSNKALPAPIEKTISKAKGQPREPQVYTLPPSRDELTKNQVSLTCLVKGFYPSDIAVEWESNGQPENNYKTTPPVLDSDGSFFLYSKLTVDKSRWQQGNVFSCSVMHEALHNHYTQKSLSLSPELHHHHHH
T1 sequence (Q9EPW9 with tags, fused parts or gaps limits assumed): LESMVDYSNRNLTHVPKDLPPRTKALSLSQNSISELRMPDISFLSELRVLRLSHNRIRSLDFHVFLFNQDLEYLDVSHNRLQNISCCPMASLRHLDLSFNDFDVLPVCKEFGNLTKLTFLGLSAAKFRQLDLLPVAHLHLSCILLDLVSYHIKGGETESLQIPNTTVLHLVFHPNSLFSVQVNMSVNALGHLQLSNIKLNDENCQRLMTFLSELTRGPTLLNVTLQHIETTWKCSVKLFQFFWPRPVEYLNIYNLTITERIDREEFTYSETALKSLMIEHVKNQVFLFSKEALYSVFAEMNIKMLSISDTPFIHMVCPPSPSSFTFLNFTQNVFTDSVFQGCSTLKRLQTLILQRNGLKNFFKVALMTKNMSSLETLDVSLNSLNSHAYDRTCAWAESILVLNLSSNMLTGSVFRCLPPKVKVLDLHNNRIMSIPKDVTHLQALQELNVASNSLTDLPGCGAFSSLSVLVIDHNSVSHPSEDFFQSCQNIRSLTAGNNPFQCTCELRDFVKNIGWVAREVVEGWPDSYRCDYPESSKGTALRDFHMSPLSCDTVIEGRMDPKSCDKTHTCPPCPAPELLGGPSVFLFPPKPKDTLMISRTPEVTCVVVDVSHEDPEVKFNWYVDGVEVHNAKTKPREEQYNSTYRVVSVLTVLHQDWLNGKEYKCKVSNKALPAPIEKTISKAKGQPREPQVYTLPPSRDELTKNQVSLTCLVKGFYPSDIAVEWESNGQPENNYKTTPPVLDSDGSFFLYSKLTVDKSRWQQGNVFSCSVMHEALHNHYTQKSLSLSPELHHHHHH

Substance	detection response ([1]; freshly prepared biosensors (column A, no storage)) [%]	detection response ([1]; storage condition G: 2 weeks, 4° C., amino acid buffer pH ~8.0) [%]	response after storage ([1]; Batch B: 2 weeks, PBS buffer pH ~7.4, 4° C.)	activity in comparison to control ([1]; Batch C: 2 weeks, 50% v/v PBS/glycerol) [%]	activity in comparison to control ([1]; Batch D: 2 weeks, 50% v/v Tris/glycerol) [%]	response after storage versus control biosensor ([1]; Batch E: 2 weeks, −80° C., PBS buffer pH ~7.4, all concentrations)	response after storage ([1]; Batch F: 2 weeks, −80° C., no buffer solution)	peak current (cyclic voltammogram) after exposure [2] [μA]	electrochemical response (ΔRct %) ([3]; 0.1 μM analyte, fresh biosensors, 4 replicates) [%]	electrochemical response (ΔRct %) ([3]; 1 μM analyte, fresh biosensors, 4 replicates) [%]	electrochemical response (ΔRct %) ([3]; largest concentration, FIG. 4 comparison) [%]	electrochemical response (ΔRct %) ([3]; LPS from 0.1 to 63.6 μg/ml, any concentration) [%]
Pam2CSK4	167±29	360±24	no significant responses	30	30	within error of the control biosensor	lost most of their response	96	24±12	58±13	~160	
lipopolysaccharide [Salmonella LPS]												≤ 40
